Read-outs that look alike come from different tables or passages of the source.
Experiments:
[1] = system: cat flea (Ctenocephalides felis); assay: whole plant or invertebrate; format: in vivo; details: Ctenocephalides felis
In short: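 Adult C. felis (3-7 days post-emergence; 15 per flask, at least 4 replicates) exposed to a glass flask base dried 24 h after coating with compound in acetone at 1.26 μg/cm^2. Held at 25±1 °C, 75±5% humidity; mortality (immobile or unable to right) scored at 8, 24 and/or 48 h as percentage.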

[2] = system: Brown Dog Tick (Rhipicephalus sanguineus); assay: Rapid screening protocol for topical application on brown dog ticks; format: in vivo; details: for R. sanguineus Mortality (%) 48 h: Laboratory 2 F data; for Rhipicephalus sanguineus Mortality (%) 24 h: topical, 10 μg of active per tick in 1 μL acetone, adult ticks, Laboratory 1 E data
Description: d) Rapid Screening Protocol for Topical Application on Brown Dog Ticks (Rhipicephalus sanguineus)
The aim of the test was to determine the presence of significant acaricidal activity in sample compounds or formulations when applied topically on brown dog ticks. A tick was defined as dead if it gave no apparent response when touched lightly and observed for 1 minute. […] Both permethrin and fipronil were employed as reference compounds. The insect species tested was the Brown Dog Tick (Rhipicephalus sanguineus). Mixed sex adult ticks were used for tests. The strain used was cultured by von Berky Veterinary Services, Woody Point, QLD, AU and supplied as unfed adult ticks (mixed sex). Ticks were maintained in controlled conditions (temp. 18°+2° C., humidity 75±5% RH).
Temperature was maintained at 25±1° C. and the humidity was ambient. […] Ticks were each treated on the abdomen with 1 μL of a single dose level of test sample in acetone; ten ticks were treated with solvent only (acetone) in each test. Tests were replicated 4 times (total of 40 ticks treated). […]

[3] = 8 h, read-out: C. felis Mortality (%) 8 h, 8 h, Laboratory 2 B data
[4] = 24 h, read-out: C. felis Mortality (%) 24 h, 24 h, Laboratory 2 B data
[5] = 24 h, read-out: Ctenocephalides felis Mortality (%) 24 h
[6] = 48 h, read-out: Ctenocephalides felis Mortality (%) 48 h

Structure (SMILES) | mortality at 1.26 µg/cm2, 1.26 µg/cm2 [1, 3] [%] | mortality at 1.26 µg/cm2, 1.26 µg/cm2 [1, 4] [%] | R. sanguineus Mortality (%) 48 h [2] [%] | further results
CC/C(=N\OCc1cccnc1)c1cc(Cl)ccc1NS(=O)(=O)C(F)(F)F [Compound 206] | 97 | 100 | 52 | –
CC/C(=N\Oc1ccc(Cl)cc1)c1ccc(C(F)(F)F)cc1NS(=O)(=O)C(F)(F)F [Compound 201] | 85 | 100 | 22 | –
CC/C(=N\OCc1ccc(Cl)cc1)c1cc(Cl)ccc1N(C(C)=O)S(=O)(=O)C(F)(F)F [Compound 307, N-acetyl-N-{4-chloro-2-[1-(4-chlorobenzyloxyimino)propyl]phenyl}trifluoromethanesulfonamide] | – | – | – | mortality at 1.26 µg/cm2 [1, 5]: 10%; mortality at 1.26 µg/cm2 [1, 6]: 98%; Rhipicephalus sanguineus Mortality (%) 24 h [2]: 5%
CCOCN(c1ccc(Cl)cc1/C(CC)=N/OCc1ccc(Cl)cc1)S(=O)(=O)C(F)(F)F [Compound 302] | – | – | – | mortality at 1.26 µg/cm2 [1, 5]: 3%; mortality at 1.26 µg/cm2 [1, 6]: 82%; Rhipicephalus sanguineus Mortality (%) 24 h [2]: 5%
CC/C(=N\OCc1ccc(Cl)cc1)c1ccc(C(F)(F)F)cc1NS(=O)(=O)C(F)(F)F [Compound 220] | 54 | 100 | 62 | –
CCOC(=O)N(c1ccc(Cl)cc1/C(C)=N/Oc1ccc(F)cc1)S(=O)(=O)C(F)(F)F [Compound 310, N-carbonylethoxy-N-{4-chloro-2-[1-(4-fluorophenoxyimino)ethyl]phenyl}trifluoromethanesulfonamide] | – | – | – | mortality at 1.26 µg/cm2 ([1]; 8 h, single concentration 1.26 μg/cm^2 on treated glass, adult fleas, Laboratory 2 B data, read-out: Ctenocephalides felis Mortality (%) 8 h): 56%; mortality at 1.26 µg/cm2 ([1]; 24 h, single concentration 1.26 μg/cm^2 on treated glass, adult fleas, Laboratory 2 B data, read-out: Ctenocephalides felis Mortality (%) 24 h): 100%; Rhipicephalus sanguineus Mortality (%) 24 h [2]: 52%
C/C(=N\Oc1ccc(F)cc1)c1ccc(C(F)(F)F)cc1NS(=O)(=O)C(F)(F)F [Compound 200, N-{2-[1-(4-fluorophenoxyimino)ethyl]-5-trifluoromethylphenyl}trifluoromethanesulfonamide] | 93 | 100 | 17 | –
CC/C(=N\OCC(F)(F)F)c1cc(Cl)ccc1NS(=O)(=O)C(F)(F)F [Compound 184] | 100 | 100 | 92 | –
C/C(=N\OCc1ccc(Cl)cc1)c1ccc(C(F)(F)F)cc1NS(=O)(=O)C(F)(F)F [Compound 218] | 90 | 100 | 75 | –
CC/C(=N\OCc1ccc(C(F)(F)F)cc1)c1ccc(C(F)(F)F)cc1NS(=O)(=O)C(F)(F)F [Compound 221] | 44 | 100 | 67 | –
CC/C(=N\Oc1ccc(F)cc1)c1ccc(C(F)(F)F)cc1NS(=O)(=O)C(F)(F)F [Compound 214] | 98 | 100 | 20 | –
CCC/C(=N\OC(C)C)c1cc(Cl)ccc1NS(=O)(=O)C(F)(F)F [Compound 191] | 52 | 100 | 92 | –
CCCCc1cc(-c2cc(Cl)ccc2NS(=O)(=O)C(F)(F)F)no1 [Compound 291] | – | – | – | mortality at 1.26 µg/cm2 ([1]; 8 h, read-out: Ctenocephalides felis Mortality (%) 8 h): 91%; mortality at 1.26 µg/cm2 [1, 5]: 100%; Rhipicephalus sanguineus Mortality (%) 24 h [2]: 67%
C/C(=N\OCc1cccs1)c1cc(Cl)ccc1NS(=O)(=O)C(F)(F)F [Compound 190] | 98 | 100 | 75 | –

— US7312248B2, “Control of parasites in animals by the use of novel trifluoromethanesulfonanilide oxime ether derivatives” (Schering-Plough Animal Health Corporation, priority 2004, dated 2007)
